# Test results taken from US7276527B2, “5-pyridyl-1,3-azole compounds, process for producing the same and use thereof” (Takeda Pharmaceutical Company Limited, priority 1999, dated 2007).
row,SMILES,melting point [°C]
1,"CC(=O)Nc1nc(-c2cc(C)cc(C)c2)c(-c2ccnc(NCc3ccccc3)c2)s1 [Example Compound 10, N-[5-(2-benzylamino-4-pyridyl)-4-(3,5-dimethylphenyl)-1,3-thiazol-2-yl]acetamide]",217 to 219
2,"CNc1nc(-c2ccc(OC)cc2)c(-c2ccnc(NC(=O)c3ccccc3)c2)s1 [Example Compound 11, N-[4-[4-(4-methoxyphenyl)-2-methylamino-1,3-thiazol-5-yl]-2-pyridyl]benzamide]",237 to 241
3,"Cc1cccc(-c2nc(N)sc2-c2ccnc(NC(=O)c3ccccc3)c2)c1 [Example Compound 12, N-[4-[2-amino-4-(3-methylphenyl)-1,3-thiazol-5-yl]-2-pyridyl]benzamide]",216 to 217
4,"COc1ccc(-c2nc(C)sc2-c2ccnc(NC(=O)Cc3ccccc3)c2)cc1 [Example Compound 15-1, N-[4-[4-(4-methoxyphenyl)-2-methyl-1,3-thiazol-5-yl]-2-pyridyl]phenylacetamide]",118 to 120
5,"CCCCc1nc(-c2cccc(C)c2)c(-c2ccnc(NC(=O)Cc3ccccc3)c2)s1 [Example Compound 15-4, N-[4-[2-butyl-4-(3-methylphenyl)-1,3-thiazol-5-yl]-2-pyridyl]phenylacetamide]",92 to 93
6,"Cc1cccc(-c2nc(-c3ccccc3Cl)sc2-c2ccnc(NC(=O)Cc3ccccc3)c2)c1 [Example Compound 15-5, N-(4-[2-(2-chlorophenyl)-4-(3-methylphenyl)-1,3-thiazol-5-yl]-2-pyridyl]phenylacetamide]",141 to 142
7,"CSc1ccc(-c2nc(-c3cccc(C)c3)c(-c3ccnc(NC(=O)Cc4ccccc4)c3)s2)cc1 [Example Compound 15-6, N-[4-[4-(3-methylphenyl)-2-(4-methylthiophenyl)-1,3-thiazol-5-yl]-2-pyridyl]phenylacetamide]",205 to 206
8,"CCc1nc(-c2cccc(C)c2)c(-c2ccnc(NC(=O)CCc3ccc(OC)cc3)c2)s1 [Example Compound 16-3, N-[4-[2-ethyl-4-(3-methylphenyl)-1,3-thiazol-5-yl]-2-pyridyl]-3-(4-methoxyphenyl)propionamide]",137 to 138
9,"CCc1nc(-c2cccc(C)c2)c(-c2ccnc(NC(=O)CCc3ccc(F)cc3)c2)s1 [Example Compound 16-4, N-[4-[2-ethyl-4-(3-methylphenyl)-1,3-thiazol-5-yl]-2-pyridyl]-3-(4-fluorophenyl)propionamide]",116 to 117
10,"CCc1nc(-c2cccc(C)c2)c(-c2ccnc(NC(=O)CCCc3ccccc3)c2)s1 [Example Compound 16-5, N-[4-[2-ethyl-4-(3-methylphenyl)-1,3-thiazol-5-yl]-2-pyridyl]-4-phenylbutyramide]",92 to 93
11,"CCc1nc(-c2cccc(C)c2)c(-c2ccnc(NC(=O)CCCCc3ccccc3)c2)s1 [Example Compound 16-6, N-[4-[2-ethyl-4-(3-methylphenyl)-1,3-thiazol-5-yl]-2-pyridyl]-5-phenylvaleramide]",86 to 87
12,"CCCc1nc(-c2cccc(C)c2)c(-c2ccnc(NC(=O)CCc3ccccc3)c2)s1 [Example Compound 16-8, N-[4-[4-(3-methylphenyl)-2-propyl-1,3-thiazol-5-yl]-2-pyridyl]-3-phenylpropionamide]",103 to 104
13,"CCCCc1nc(-c2cccc(C)c2)c(-c2ccnc(NC(=O)CCc3ccccc3)c2)s1 [Example Compound 16-10, N-[4-[2-butyl-4-(3-methylphenyl)-1,3-thiazol-5-yl]-2-pyridyl]-3-phenylpropionamide]",77 to 78
14,"Cc1cccc(-c2nc(-c3ccc(F)cc3)sc2-c2ccnc(NC(=O)c3ccccc3)c2)c1 [Example Compound 16-11, N-[4-[2-(4-fluorophenyl)-4-(3-methylphenyl)-1,3-thiazol-5-yl]-2-pyridyl]benzamide]",126 to 128
15,"Cc1cccc(-c2nc(-c3ccc(F)cc3)sc2-c2ccnc(NC(=O)CCc3ccccc3)c2)c1 [Example Compound 16-12, N-[4-[2-(4-fluorophenyl)-4-(3-methylphenyl)-1,3-thiazol-5-yl]-2-pyridyl]-3-phenylpropionamide]",169 to 171
16,"Cc1cccc(-c2nc(-c3ccccc3Cl)sc2-c2ccnc(NC(=O)c3ccccc3)c2)c1 [Example Compound 16-13, N-(4-[2-(2-chlorophenyl)-4-(3-methylphenyl)-1,3-thiazol-5-yl]-2-pyridyl]benzamide]",138 to 140
17,"Cc1cccc(-c2nc(-c3ccccc3Cl)sc2-c2ccnc(NC(=O)CCc3ccccc3)c2)c1 [Example Compound 16-14, N-[4-[2-(2-chlorophenyl)-4-(3-methylphenyl)-1,3-thiazol-5-yl]-2-pyridyl]-3-phenylpropionamide]",156 to 158

row,SMILES,melting point [°C]
1,"CSc1ccc(-c2nc(-c3cccc(C)c3)c(-c3ccnc(NC(=O)c4ccccc4)c3)s2)cc1 [Example Compound 16-15, N-[4-[4-(3-methylphenyl)-2-(4-methylthiophenyl)-1,3-thiazol-5-yl]-2-pyridyl]benzamide]",180 to 182
2,"CSc1ccc(-c2nc(-c3cccc(C)c3)c(-c3ccnc(NC(=O)CCc4ccccc4)c3)s2)cc1 [Example Compound 16-16, N-[4-[4-(3-methylphenyl)-2-(4-methylthiophenyl)-1,3-thiazol-5-yl]-2-pyridyl]-3-phenylpropionamide]",174 to 175
3,"CSc1ccc(-c2nc(-c3cccc(C)c3)c(-c3ccnc(NC(=O)c4cccs4)c3)s2)cc1 [Example Compound 16-17, N-[4-[4-(3-methylphenyl)-2-(4-methylthiophenyl)-1,3-thiazol-5-yl]-2-pyridyl]-2-thiophenecarboxamide]",145 to 147
4,"CSc1ccc(-c2nc(-c3cccc(C)c3)c(-c3ccnc(NC(=O)c4ccc5ccccc5c4)c3)s2)cc1 [Example Compound 16-18, N-[4-[4-(3-methylphenyl)-2-(4-methylthiophenyl)-1,3-thiazol-5-yl]-2-pyridyl]-2-naphthamide]",184 to 186
5,"COc1ccc(-c2nc(C)sc2-c2ccnc(NCc3ccccc3)c2)cc1 [Example Compound 19-1, N-benzyl-N-[4-[4-(4-methoxyphenyl)-2-methyl-1,3-thiazol-5-yl]-2-pyridyl]amine]",132 to 133
6,"Cc1cccc(-c2nc(-c3ccc(F)cc3)sc2-c2ccnc(NCc3ccccc3)c2)c1 [Example Compound 19-11, N-benzyl-N-[4-[2-(4-fluorophenyl)-4-(3-methylphenyl)-1,3-thiazol-5-yl]-2-pyridyl]amine]",143 to 146
7,"Cc1cccc(-c2nc(-c3ccc(F)cc3)sc2-c2ccnc(NCCc3ccccc3)c2)c1 [Example Compound 19-12, N-[4-[2-(4-fluorophenyl)-4-(3-methylphenyl)-1,3-thiazol-5-yl]-2-pyridyl]-N-(2-phenylethyl)amine]",97 to 98
8,"Cc1cccc(-c2nc(-c3ccc(F)cc3)sc2-c2ccnc(NCCCc3ccccc3)c2)c1 [Example Compound 19-13, N-[4-[2-(4-fluorophenyl)-4-(3-methylphenyl)-1,3-thiazol-5-yl]-2-pyridyl]-N-(3-phenylpropyl)amine]",110 to 112
9,"Cc1cccc(-c2nc(-c3ccccc3Cl)sc2-c2ccnc(NCc3ccccc3)c2)c1 [Example Compound 19-14, N-benzyl-N-[4-[2-(2-chlorophenyl)-4-(3-methylphenyl)-1,3-thiazol-5-yl]-2-pyridyl]amine]",84 to 86
10,"Cc1cccc(-c2nc(-c3ccccc3Cl)sc2-c2ccnc(NCCc3ccccc3)c2)c1 [Example Compound 19-15, N-[4-[2-(2-chlorophenyl)-4-(3-methylphenyl)-1,3-thiazol-5-yl]-2-pyridyl]-N-(2-phenylethyl)amine]",113 to 114
11,"Cc1cccc(-c2nc(-c3ccccc3Cl)sc2-c2ccnc(NCCCc3ccccc3)c2)c1 [Example Compound 19-16, N-[4-[2-(2-chlorophenyl)-4-(3-methylphenyl)-1,3-thiazol-5-yl]-2-pyridyl]-N-(3-phenylpropyl)amine]",101 to 102
12,"CSc1ccc(-c2nc(-c3cccc(C)c3)c(-c3ccnc(NCc4ccccc4)c3)s2)cc1 [Example Compound 19-17, N-benzyl-N-[4-[4-(3-methylphenyl)-2-(4-methylthiophenyl)-1,3-thiazol-5-yl]-2-pyridyl]amine]",134 to 136
13,"CSc1ccc(-c2nc(-c3cccc(C)c3)c(-c3ccnc(NCCc4ccccc4)c3)s2)cc1 [Example Compound 19-18, N-[4-[4-(3-methylphenyl)-2-(4-methylthiophenyl)-1,3-thiazol-5-yl]-2-pyridyl]-N-(2-phenylethyl)amine]",137 to 139
14,"CSc1ccc(-c2nc(-c3cccc(C)c3)c(-c3ccnc(NCCCc4ccccc4)c3)s2)cc1 [Example Compound 19-19, N-[4-[4-(3-methylphenyl)-2-(4-methylthiophenyl)-1,3-thiazol-5-yl]-2-pyridyl]-N-(3-phenylpropyl)amine]",106 to 107
15,"CSc1ccc(-c2nc(-c3cccc(C)c3)c(-c3ccnc(NCc4ccc5ccccc5c4)c3)s2)cc1 [Example Compound 19-20, N-[4-[4-(3-methylphenyl)-2-(4-methylthiophenyl)-1,3-thiazol-5-yl]-2-pyridyl]-N-(2-naphthylmethyl)amine]",144 to 145
16,"Cc1cccc(-c2nc(-c3ccc(S(C)(=O)=O)cc3)sc2-c2ccnc(NC(=O)CCc3ccccc3)c2)c1 [Example Compound 21-2, N-[4-[4-(3-methylphenyl)-2-(4-methylsulfonylphenyl)-1,3-thiazol-5-yl]-2-pyridyl]-3-phenylpropionamide]",236 to 237
17,"Cc1cccc(-c2nc(-c3ccc(S(C)(=O)=O)cc3)sc2-c2ccnc(NC(=O)c3cccs3)c2)c1 [Example Compound 21-3, N-[4-[4-(3-methylphenyl)-2-(4-methylsulfonylphenyl)-1,3-thiazol-5-yl]-2-pyridyl]-2-thiophenecarboxamide]",199 to 201
